Data reported in patent publication US9345682B2, “Inhibition of STAT3 signal transduction for human cancer therapy” (University of South Florida, priority 1999, dated 2016).

Tests used:
STAT3 [1] = assay: STAT3-specific luciferase reporter (pLucTKS3) induced by v-Src in NIH 3T3 fibroblasts; assay type: cell-based, mouse; conditions: for constitutive induction of the STAT3-dependent luciferase reporter: NIH 3T3/v-Src/TKS3 cells stably expressing reporter, 6 hours; for STAT3-specific luciferase reporter induction by v-Src: transiently transfected NIH 3T3 cells, inhibitor for 6 h
Method: NIH 3T3, NIH 3T3/v-Src and NIH 3T3/v-Ras fibroblasts are grown in Dulbecco's modified Eagle's medium (DMEM) containing 5% iron-supplemented bovine calf serum (BCS). Transient transfections are carried out by the standard calcium phosphate method as previously described (Turkson, et al., 1998, Mol. Cell. Biol. 18:2545-2552). NIH 3T3 fibroblasts are seeded at 5×10^5 cells/100-mm plate in DMEM plus 5% BCS at 18 to 24 hours prior to transfection. Total DNA for transfections is typically 20 μg per plate, including 4 μg of luciferase reporter construct (pLucTKS3), 0.2 μg of β-galactosidase (β-Gal) internal control vector, and the amounts of expression vector indicated in figure legends. Transfection is terminated 15 hours later by aspirating the medium, washing the cells with phosphate-buffered saline (PBS), and adding fresh DMEM. For generation of NIH 3T3/v-Src/TKS3 cell lines stably expressing the STAT3 reporter, NIH 3T3/v-Src cells are transfected using Fugene 6 (Boehringer Mannheim) according to the supplier's protocol. The transfection mixture contains 5.5 μg total DNA per 10 cm plate, including […] of the STAT3 reporter, pLucTKS3, and 0.5 μg of pcDNA3 that carries the neomycin resistance gene. Individual G418-resistant clones are picked and characterized with regard to STAT3-dependent luciferase activities.
(§1) In the case of stable NIH 3T3/v-Src/TKS3 clones, cells are treated with inhibitors or DMSO for 6 hours prior to preparing cytosolic extracts. For transient expression assays, cytosolic extracts are prepared from cells at 48 hours posttransfection as previously described (Turkson, et al., 1998, Mol. Cell. Biol. 18:2545-2552). Briefly, after two washes with PBS and equilibration for 5 min with 0.5 ml of PBS-0.5 mM EDTA, cells are scraped off the dishes and the cell pellet is obtained by centrifugation (4,500×g, 2 min, 4° C.). Cells are resuspended in 0.4 ml of low-salt HEPES buffer (10 mM HEPES [pH 7.8], 10 mM KCl, 0.1 mM EGTA, 0.1 mM EDTA, 1 mM phenylmethylsulfonyl fluoride, and 1 mM dithiothreitol) for 15 min, lysed by the addition of 20 μl of 10% Nonidet P-40 (NP-40), and centrifuged (10,000×g, 30 s, 4° C.) to obtain the cytosolic supernatant, which is used for luciferase assays (Promega) measured with a luminometer and for β-Gal activity detection by colorimetric assay at A570. As an internal control for transient transfection efficiency, results are normalized to β-Gal activity. For EMSA, nuclear extracts are prepared from transiently-transfected NIH 3T3 cells and volumes containing equal amounts of total protein are incubated with ^32P-labeled M67SIE oligonucleotide probe, as previously reported (Garcia, et al., 1997, Cell Growth Differ. 8:1267-1276, Yu, et al., 1995, Science 269:81-83). […]

STAT3 [2] = assay: Western blot of STAT3 serine 727 phosphorylation in Src-transformed NIH 3T3 fibroblasts; assay type: cell-based, mouse; conditions: 6 hours
Method: (§2) Whole-cell lysates are prepared in boiling sodium dodecyl sulfate (SDS) sample-loading buffer in order to extract total proteins from the cytoplasm and nucleus as well as preserve the in vivo phosphorylation […]. Equivalent amounts of total cellular protein are electrophoresed on an SDS-10% polyacrylamide gel and transferred to nitrocellulose membranes. Probing of nitrocellulose membranes with primary antibodies and detection of horseradish peroxidase-conjugated secondary antibodies by enhanced chemiluminescence (Amersham) are performed as previously described (Garcia, et al., 1997, Cell Growth Differ. 8:1267-1276, Turkson, et al., 1998, Mol. Cell. Biol. 18:2545-2552, Yu, et al., 1995, Science 269:81-83). Probes used are rabbit polyclonal antibodies against […] amino acid residues (626-640) of STAT3 (Santa Cruz Biotechnology), phosphoserine-727 of STAT3 (25), active (phospho-) JNK, p38^mapk or ERKs (New England Biolabs), or total JNK, p38^mapk or ERKs (Santa Cruz Biotechnology).

STAT3 [3] = assay: EMSA (M67SIE probe) of STAT3 DNA-binding activity in NIH 3T3 cells expressing v-Src; assay type: cell-based, mouse; conditions: v-Src-expressing NIH 3T3 cells, 6 hours
Method: as §1, with “activity.” for “activity. For EMSA, nuclear extracts are prepared from transiently-transfected NIH 3T3 cells and volumes containing equal amounts of total protein are incubated with ^32P-labeled M67SIE oligonucleotide probe, as previously reported (Garcia, et al., 1997, Cell Growth Differ. 8:1267-1276, Yu, et al., 1995, Science 269:81-83).”

p38, JNK1/2, ERK1/2 = assay: Western blot of phosphorylated (activated) MAPKs in Src-transformed fibroblasts; assay type: cell-based, mouse
Method: as §2

[4] = test system: NIH 3T3/v-Src fibroblasts; assay: Soft-agar colony formation of NIH 3T3/v-Src fibroblasts; assay type: cell-based, mouse; conditions: treated once weekly
Method: (§3) Colony formation assays are carried out in 6-well dishes. Each well contains 1.5 ml of 1% agarose in DMEM as the bottom layer. The top layer in each well consists of 1.5 ml of 0.5% agarose in DMEM containing 4,000 or 6,000 of NIH 3T3/v-Src or NIH 3T3/v-Ras fibroblasts, respectively. Treatment with inhibitors is initiated one day after seeding cells by adding 75-100 μl of medium with or without inhibitors and repeated once a week until formation of large colonies is evident. For quantitation, colonies are stained by adding 20 μl of 1 mg/ml iodonitrotetrazoliurn violet to each well and incubating at 37° C. overnight. Stained colonies are counted the next day.

[5] = test system: NIH 3T3/v-Ras fibroblasts; assay: Soft-agar colony formation of NIH 3T3/v-Ras fibroblasts; assay type: cell-based, mouse; conditions: treated once weekly
Method: as §3

SH2 Domain of STAT3 = target: T1, SH2 Domain of STAT3 (Homo sapiens, UniProt P40763); assay: Phage display panning, 7-mer peptide library, on the SH2 domain of STAT3; assay type: binding
T1 construct: the SH2 domain of STAT3 is isolated as a target for screening 7-mer peptide phage display libraries; GST; made in house; host or cells: bacteria (E. coli)
Excerpt: Phage display peptide libraries are used because of two powerful features. First, phage libraries generate an enormous diversity of peptides that can be subjected to affinity selection by panning. […] These combinatorial libraries are based on random short peptide sequences fused to a coat protein of bacteriophage, herein pIII of the filamentous coliphage MI3. Panning of the peptide library using an immobilized target, herein STAT3 fusion proteins bound onto beads, is used to select for peptide sequences that bind to STAT3. […] Peptide sequences that occur at elevated frequencies are good candidates for ST4T3-specific binding peptides. […] These cyclic peptides have the advantage of reducing entropic freedom, thereby potentially increasing binding specificity and affinity relative to linear peptides. Another variation on this approach is to combine “affinity maturation” with the phage display peptide library [Scott & Smith, 1990, Science, 249:386-390].
For panning phage with the STAT3 fusion protein, 50 ul of glutathione-Sepharose beads bound to purified GST-Stat3 fusion protein are washed with phosphate buffered saline (PBS). The beads are then incubated with 10 ul of phage suspension (1.4×10^11 virions) in 200 ul final volume of PBS for 30 min at room temperature with occasional mixing. The beads are gently pelleted in a microcentrifuge, and washed 10 times with 1 ml of PBS to remove unbound phage. Background of non-specifically bound phage is reduced by a variety of methods, including pre-blocking the beads with bovine serum albumin, pre-clearing the phage library with GST-glutathione-Sepharose beads, and washing the beads with increasing salt concentrations. Bound phage virions are eluted from the beads by incubation with a molar excess of glutathione for 30 min at room temperature. A small aliquot of the phage eluate is titered and the rest is amplified on the E. coli ER2537 host strain. Following amplification, the phage are purified by polyethylene glycol (PEG) precipitation and then the titer is determined again. […]

STAT3 [6] = assay: EMSA of constitutive STAT3 DNA-binding activity in MDA-MB-468 breast carcinoma cells; assay type: cell-based, human; conditions: MDA-MB-468 cells; dose-dependent
Method: (§4) FIG. 6: Src and JAK Inhibitors Block Growth and STAT3 Activation in Breast Carcinoma Cells. MDA-MD-468 cells are treated with inhibitors of EGF receptor (PD158780), Src (PD180970), or JAKs (AG490), and effects on cell growth (Panel A) and STAT3 DNA-binding activity (Panel B) are determined.
STAT DNA-binding activity in human breast cancer cell lines is examined by electrophoretic mobility shift assays (EMSA) (Garcia et al., 1997, Cell Growth Diff. 8:1267-1276). In these experiments, EMSAs are performed using the ^32P-labeled sis-inducible element (SIE) as a probe to detect STAT DNA-binding activity in nuclear extracts of cells. This synthetic DNA oligonucleotide probe is a high-affinity mutant of the c-fos SIE, called hSIE, that binds both STAT1 and STAT3 (Yu, et al., 1995, Science 269:81-83). […] This activation is constitutive and occurs in the absence of exogenous EGF stimulation. By contrast, STAT3 activation is not detected in any of the three cell lines derived from normal breast tissue.
(§5) The involvement of these, and other, tyrosine kinases in STAT3 activation is tested using specific inhibitors of JAK family kinases, and the EGF receptor and Src family kinases.

MDA-MB-468 cells = assay: Cell growth of MDA-MB-468 breast carcinoma cells; assay type: cell-based, human
Method: as §4, §5

T1 sequence (P40763 580-670 limits assumed): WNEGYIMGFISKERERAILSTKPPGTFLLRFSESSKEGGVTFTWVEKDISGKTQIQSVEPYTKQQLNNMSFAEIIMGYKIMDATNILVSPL

Compound: Oc1ccc(-c2nc(-c3ccncc3)c(-c3ccc(F)cc3)[nH]2)cc1 [SB202190]
- constitutive induction of the STAT3-dependent luciferase reporter (STAT3 [1]): completely
- STAT3-specific luciferase reporter induction by v-Src (STAT3 [1]): significant inhibition
- STAT3 serine phosphorylation (phosphoserine-727) (STAT3 [2]): blocks
- STAT3 DNA-binding activity induced by v-Src (STAT3 [3]): no effect
- phosphorylation of MAPK members, including p38 (p38, JNK1/2, ERK1/2; Src-transformed cells): does not significantly alter
- colony formation of Src-transformed cells in soft agar [4]: completely blocks
- colony formation of Ras-transformed fibroblasts in soft agar [5]: no significant effects

Compound: IQSPHFF (listed as Homo sapiens)
- Frequency (out of 100 clones) (SH2 Domain of STAT3): 6%

Compound: CNc1cc2c(Nc3cccc(Br)c3)ncnc2cn1 [PD158780]
- constitutive STAT3 activation (STAT3 DNA-binding activity) (STAT3 [6]): does not block
- cell growth (MDA-MB-468 cells): not by the EGF receptor inhibitor

Compound: ASTLPKA (listed as Homo sapiens)
- Frequency (out of 100 clones) (SH2 Domain of STAT3): 7%

Compound: HAIYPRN (listed as Homo sapiens)
- Frequency (out of 100 clones) (SH2 Domain of STAT3): 16%

Compound: COc1cccc(-c2cc(=O)c3ccccc3o2)c1N [PD98059]
- constitutive induction of the STAT3-dependent luciferase reporter (STAT3 [1]): partially
- STAT3-specific luciferase reporter induction by v-Src (STAT3 [1]): significantly suppresses
- STAT3 serine phosphorylation (phosphoserine-727) (STAT3 [2]): blocks
- STAT3 DNA-binding activity induced by v-Src (STAT3 [3]): no effect
- basal ERKs activity (p38, JNK1/2, ERK1/2; Src-transformed fibroblasts): complete block
- colony formation of Src-transformed cells in soft agar [4]: lack of significant effect
- colony formation of Ras-transformed fibroblasts in soft agar [5]: lack of significant effect

Compound: Cc1cc(Nc2ncc3cc(-c4c(Cl)cccc4Cl)c(=O)n(C)c3n2)ccc1F [PD180970]
- constitutive STAT3 activation (STAT3 DNA-binding activity) (STAT3 [6]): effectively blocked
- cell growth (MDA-MB-468 cells): inhibition of cell growth
